The test system of data set [1] is platelet aggregation induced with ADP. Nature of the data set: Maximum platelet aggregation rate of rabbits, induced with ADP. In kind it is cell-based. Conditions: rabbit plasma, 4 mg/kg as printed, n=3; for inhibition at 4 mg/kg: Oryctolagus cuniculus, Platelet. As for the experimental part: (§1) Effects on maximum platelet aggregation rate of rabbits: 3 Rabbits were anesthetized, and blood was collected from the heart to obtain 14 parts of plasma for each rabbit (1 ml per part of plasma). 7 Parts were induced with ADP to allow platelet aggregation, and 7 parts were induced with a platelet activating factor. After the induction, a solvent, positive control drug aspirin, and 5 samples to be trialed were separately added to the plasma, and maximum platelet aggregation rate was detected with a platelet aggregation meter. The trials were repeated 3 times, and an average was taken. Detected indicator: maximum platelet aggregation rate.
(§2) Table 4 lists results of effects of phenylpropionate compounds (4 mg/kg) on platelet aggregation rate of rabbits (n=3).

Data set [2] deals with platelet aggregation induced with a platelet activating factor. Kind of data set: Maximum platelet aggregation rate of rabbits, induced with PAF. The class given is cell-based. The note with it: rabbit plasma, 4 mg/kg as printed; for inhibition at 4 mg/kg: Oryctolagus cuniculus, Platelet, n=3, read-out: Inhibiton rate on Aggregation; for Maximum Aggregation Rate: n=3. As for the experimental part:
as §1, §2

A further data set has as its system IL-1β. Nature of the data set: Inflammatory factor IL-1β in blood and brain tissues of rats with acute cerebral ischemia-reperfusion. The class given is in vivo, SD rats. The note with it: 4 mg/kg iv 2 h after reperfusion; 4 h after administration; n=5. As for the experimental part: (§3) Trial method: Effects on inflammatory factors and blood viscosity of rats with acute cerebral ischemia-reperfusion: 70 Male SD rats underwent an MACO surgery by a suture method, and after the surgery, alive rats were randomly grouped (into 7 groups, the number of successful animals in each group was guaranteed to be 6 to 8). Blood perfusion was recovered 2 h after MCAO, and corresponding trial medicaments were intravenously injected 2 h after blood reperfusion. 4 hours after the administration, blood was collected and the rats were sacrificed to take out brain tissues. The brain tissues and part of the blood were centrifuged to collect serum which was detected for inflammatory factors, and part of the blood was detected for blood viscosity by using a blood viscometer. Detected indicators: cerebral infarction area; inflammatory factors IL-1β and TNF-α; and blood viscosity.
(§4) Table 3 lists results of effects of phenylpropionate compounds (4 mg/kg) on inflammatory factors in blood and brain tissues of rats (n=5).

The subject of another data set is TNF-α. Kind of data set: Inflammatory factor TNF-α in blood and brain tissues of rats with acute cerebral ischemia-reperfusion. The class given is in vivo, SD rats. The note with it: 4 mg/kg iv 2 h after reperfusion; 4 h after administration; n=5. The procedure:
as §3, §4

In data set [3] the test system is rats with acute cerebral ischemia-reperfusion. Kind of data set: Cerebral infarction area of rats with acute cerebral ischemia-reperfusion (MCAO, suture method). In kind it is in vivo, SD rats. More on the design: Cerebral Infarction Area: unit not given here. Conditions: n=5; for Cerebral Infarction Area: 4 mg/kg iv 2 h after reperfusion (2 h MCAO), sampled 4 h after administration; for inhibition in vivo at 4 mg/kg: Rattus norvegicus, 4 h, 4 mg/kg iv 2 h after reperfusion, vs solvent control, read-out: Percentage of Cerebral Infarction Area Reduction. As for the experimental part: as §3
Table 1 lists results of effects of phenylpropionate compounds (4 mg/kg) on cerebral infarction area of rats with acute cerebral ischemia (n=5).

The test system is the same in data set [4]. Kind of data set: Blood viscosity of rats with acute cerebral ischemia-reperfusion (blood viscometer). In kind it is in vivo, SD rats. More on the design: unit not given here. Conditions: 4 mg/kg iv 2 h after reperfusion; blood 4 h after administration; n=5. As for the experimental part: as §3
Table 2 lists results of effects of phenylpropionate compounds (4 mg/kg) on blood viscosity of rats (n=5).

A short description of data set [5]: Distribution in brain: plasma and intracerebral concentrations after intravenous injection. The class given is in vivo. The note with it: both sexes, rat, rats, 4 mg/kg iv; for Kp at 10 min / Kp at 60 min / Kp at 180 min: brain/plasma, read-out: Brain/Blood Concentration Ratio. The procedure:
In this example, Compounds A to E, D-bornyl ferulate, and D-tanshinol borneol ester were measured for distribution in brain. Structures of D-bornyl ferulate (Patent Application No.: 201510243181.5) and D-tanshinol borneol ester compounds are as follows:
Method for testing distribution in brain: 42 rats with a weight range of 200±20 g were taken. The rats were randomly divided into 7 groups, with 6 rats per group, half male and half female. Rats were fasted with free access to water for 12 h and then intravenously injected with 4 mg/kg of a compound. Rats in the 3 groups were sacrificed through femoral artery bleeding and collected for blood 10 min, 60 min, 180 min after administration, respectively. Brains were taken out, 0.2 g was weighted, and 1 mL of pure water was added for homogenizing. The blood samples and brain homogenate samples were stored at −20° C.
Distribution of Compounds A to E, and D-bornyl ferulate and D-tanshinol borneol ester compounds in brain: Data on concentrations of Compounds A to E, D-bornyl ferulate, and D-tanshinol borneol ester in plasma and intracerebral in rats intravenously injected with 4 mg/kg of Compounds A to E, D-bornyl ferulate, and D-tanshinol borneol ester are listed in Table 9.

Where [6] appears, read: brain, read-out: Mean Intracerebral Concentration.
Setting [7] is: plasma, read-out: Mean Plasma Concentration.

This is an account of results in patent US11767286B2, “Phenylpropionate compound, preparation method for same, and applications thereof” (SUZHOU PHARMAVAN CO., LTD, priority 2017, dated 2023).

Where two headings read alike, the source gives them in different places.

Consider `CC(=O)Oc1ccccc1C(=O)O` [Aspirin, aspirin, reference compound], for which, in data set [1], the inhibition at 4 mg/kg turned out to be 54.1% and the “Maximum Aggregation Rate” value was determined as 14.8 ± 3.99 %. In data set [2], the inhibition at 4 mg/kg worked out at 40.8% and the “Maximum Aggregation Rate” value is on record as 41.3 ± 1.53 %. Further, in the data set on IL-1β, the IL-1β came out at 62.9 ± 11.5 ng/L. For the same compound, the TNF-α with TNF-α was found to be 647 ± 45.2 ng/L. Besides, in data set [3], the “Cerebral Infarction Area” value was found to be 22.7 ± 4.05 and the inhibition in vivo at 4 mg/kg was determined as 38%. Moreover, in data set [4], the “Blood viscosity, High Shear” value came out at 2.64 ± 0.199 and the “Blood viscosity, Low Shear” value worked out at 12.2 ± 0.742.

Regarding `COc1cc(CCC(=O)O[C@H]2C[C@H]3CC[C@]2(C)C3(C)C)cc(O)c1O` [Compound B], in data set [1], the inhibition at 4 mg/kg turned out to be 46.8% and the “Maximum Aggregation Rate” value came out at 17.5 ± 2.84 %. Besides, in data set [2], the inhibition at 4 mg/kg is 55% and the “Maximum Aggregation Rate” value is 32.1 ± 9.7 %. In the data set on IL-1β, this compound gave an IL-1β of 63.4 ± 5.6 ng/L. This compound returned a TNF-α in the data set on TNF-α of 645 ± 42.3 ng/L. Moreover, in data set [3], the “Cerebral Infarction Area” value came out at 18.7 ± 7.16 and the inhibition in vivo at 4 mg/kg was 49%. Further, in data set [4], the “Blood viscosity, High Shear” value is 2.73 ± 0.122 and the “Blood viscosity, Low Shear” value came out at 13.9 ± 0.134. For the same compound, in data set [5], the Kp at 10 min amounted to 1.6, the Kp at 60 min is 4.5 and the Kp at 180 min was found to be 1.8. Also, in data set [5] (setting [6]), the concentration at 10 min came out at 2490 ± 437 ng/g, the concentration at 60 min was found to be 1270 ± 234 ng/g and the concentration at 180 min was 247 ± 87.5 ng/g. For the same compound, in data set [5] (setting [7]), the concentration at 10 min turned out to be 1530 ± 581 ng/mL, the concentration at 60 min was 285 ± 105 ng/mL and the concentration at 180 min was 136 ± 60.4 ng/mL.

Consider `COc1cc(CCC(=O)O[C@H]2C[C@H]3CC[C@]2(C)C3(C)C)c(Br)cc1O` [Compound D], for which, in data set [1], the inhibition at 4 mg/kg turned out to be 55.3% and the “Maximum Aggregation Rate” value is listed as 14.7 ± 7.42 %. In data set [2], the inhibition at 4 mg/kg was 34.6% and the “Maximum Aggregation Rate” value amounted to 46.7 ± 9.8 %. Further, the IL-1β in the data set with IL-1β came out at 53.4 ± 8.9 ng/L. In the data set on TNF-α, this compound displayed a TNF-α of 562 ± 34.2 ng/L. In data set [3], the “Cerebral Infarction Area” value is on record as 19.4 ± 4.61 and the inhibition in vivo at 4 mg/kg was found to be 47.1%. Also, in data set [4], the “Blood viscosity, High Shear” value is 2.63 ± 0.312 and the “Blood viscosity, Low Shear” value was 13.3 ± 0.354. In data set [5], the Kp at 10 min was 1.6, the Kp at 60 min is 4.6 and the Kp at 180 min came to 4. Moreover, in data set [5] (setting [6]), the concentration at 10 min was found to be 2260 ± 323 ng/g, the concentration at 60 min turned out to be 1430 ± 285 ng/g and the concentration at 180 min was found to be 485 ± 125 ng/g. Also, in data set [5] (setting [7]), the concentration at 10 min came out at 1400 ± 236 ng/mL, the concentration at 60 min is 312 ± 115 ng/mL and the concentration at 180 min turned out to be 120 ± 22.7 ng/mL.

With `CC1(C)[C@@H]2CC[C@@]1(C)[C@@H](OC(=O)CCc1ccc(O)c(OC(F)(F)F)c1)C2` [Compound E], in data set [1], the inhibition at 4 mg/kg is 46.2% and the “Maximum Aggregation Rate” value stood at 17.7 ± 5.46 %. Moreover, in data set [2], the inhibition at 4 mg/kg came to 39.1% and the “Maximum Aggregation Rate” value amounted to 43.5 ± 8.4 %. The IL-1β in the data set on IL-1β stood at 64.3 ± 8.1 ng/L. The same compound yielded a TNF-α with TNF-α of 573 ± 43.0 ng/L. Further, in data set [3], the “Cerebral Infarction Area” value came out at 19.8 ± 3.61 and the inhibition in vivo at 4 mg/kg was 46%. Moreover, in data set [4], the “Blood viscosity, High Shear” value was 2.73 ± 0.405 and the “Blood viscosity, Low Shear” value came to 13.5 ± 1.183. Further, in data set [5], the Kp at 10 min worked out at 3.4, the Kp at 60 min was found to be 3.5 and the Kp at 180 min came out at 3.7. In addition, in data set [5] (setting [6]), the concentration at 10 min amounted to 3020 ± 527 ng/g, the concentration at 60 min came out at 959 ± 337 ng/g and the concentration at 180 min worked out at 314 ± 56.6 ng/g. In addition, in data set [5] (setting [7]), the concentration at 10 min was determined as 887 ± 222 ng/mL, the concentration at 60 min came to 274 ± 102 ng/mL and the concentration at 180 min came out at 84.6 ± 42.3 ng/mL.
